Experimental findings from patent US8084499B2, “Modified clay mineral” (Ajinomoto Co., Inc., priority 2006, dated 2011) are described below.

This data set in a line: Emulsion stability (B-type viscometer, 60 rpm viscosity / 6 rpm viscosity). To be noted: emulsion compositions similar to Example 1, compound of formula (1) with given R1/R2 instead of cocoylarginine ethyl ester.
Description: A B-type (Brookfield type) viscometer (manufactured by TOKYO KEIKI, DIGITAL VISCOMETER DVL-B) was used. About 100 ml of each emulsion composition was placed in a glass vial container, a rotor was appropriately selected, and the value obtained at a room temperature condition of 25° C., number of rotation of 6 or 60 rpm after 30 seconds was taken as the measurement value at each number of rotation. The measurement value at 60 rpm was divided by the measurement value at 6 rpm, and 0.10 to 0.19 was rated as ⊙, 0.20 to 0.29 was rated as ◯, 0.30 to 0.39 was rated as Δ, and not less than 0.40 was rated as x.
For the molecule `CCCCCCCCCCCC(=O)NC(CCCNC(=N)N)C(=O)OCC` (stereo not shown) [lauric acid residue / ethyl group, N-lauroylarginine ethyl ester cation], the “emulsion stability, rating” value was “⊙ (0.10 to 0.19 was rated as ⊙)”. On to `CCCCCCCCCCCC(=O)NC(CCCNC(=N)N)C(=O)OCC(C)C` (stereo not shown) [lauric acid residue / isobutyl group, N-lauroylarginine isobutyl ester cation], for which the “emulsion stability, rating” value is on record as “⊙ (0.10 to 0.19 was rated as ⊙)”. Take `CCCCCCCCCCCC(=O)N[C@@H](CCCNC(=N)N)C(=O)OC(C)C` [lauric acid residue / isopropyl group, N-lauroylarginine isopropyl ester cation]: the “emulsion stability, rating” value is “⊙ (0.10 to 0.19 was rated as ⊙)”. Under `CCCCCCCCCCCC(=O)NC(CCCNC(=N)N)C(=O)OC(C)CC` (stereo not shown) [lauric acid residue / s-butyl group, N-lauroylarginine s-butyl ester cation] stands “⊙ (0.10 to 0.19 was rated as ⊙)”; under `CCCCCCCC/C=C\CCCCCCCC(=O)NC(CCCNC(=N)N)C(=O)OCC` (stereo not shown) [oleic acid residue / ethyl group, N-oleylarginine ethyl ester cation], “⊙ (0.10 to 0.19 was rated as ⊙)”. Under `CCCCCCCCCCCCCCCC(=O)NC(CCCNC(=N)N)C(=O)OCC` (stereo not shown) [palmitic acid residue / ethyl group, N-palmitoylarginine ethyl ester cation] stands “⊙ (0.10 to 0.19 was rated as ⊙)”; under `CCCCCCCCCCCCCCCCCC(=O)N[C@@H](CCCNC(=N)N)C(=O)OCC` [stearic acid residue / ethyl group, N-stearoylarginine ethyl ester cation], “⊙ (0.10 to 0.19 was rated as ⊙)”.
